Measured values from US10035801B2, “Pyrazolo compounds and uses thereof” (CONSTELLATION PHARMACEUTICALS, INC., priority 2013, dated 2018).

The compounds below were run against T1, KDM5A (Homo sapiens, UniProt P29375) (assay: KDM5 enzyme assay, KDM5A HTRF (Example 463)). Conditions: compounds of Examples 1-432; read-out: Example 463 Assay KDM5A HTRF IC50.
T1 construct: Full length KDM5A enzyme was expressed and purified inhouse; made in house
Type: biochemical
Experimental: Full length KDM5A enzyme was expressed and purified inhouse. Biotin-H3K4me3 peptide was purchased from New England Biolabs. HTRF reagents (containing Eu-labeled H3K4me1-2 antibody, and streptavidin-XL665) were purchased from Cis-Bio International. Plates were read on an Envision multi-label plate reader Perkin Elmer).
The HTRF assay mixture contained 2 nM full length KDM5A enzyme, 100 nM H3K4Me3 peptide substrate, 1 uM 2-OG, 100 uM Fe^2+, 500 uM ascorbate. 50 mM HEPES pH 7.0 buffer, 0.01% Triton-X 100, 2 mM DTT. […] The plates were incubated at room temperature for 60 minutes and then read in the Envision plate reader.

T1 sequence (P29375 whole entry): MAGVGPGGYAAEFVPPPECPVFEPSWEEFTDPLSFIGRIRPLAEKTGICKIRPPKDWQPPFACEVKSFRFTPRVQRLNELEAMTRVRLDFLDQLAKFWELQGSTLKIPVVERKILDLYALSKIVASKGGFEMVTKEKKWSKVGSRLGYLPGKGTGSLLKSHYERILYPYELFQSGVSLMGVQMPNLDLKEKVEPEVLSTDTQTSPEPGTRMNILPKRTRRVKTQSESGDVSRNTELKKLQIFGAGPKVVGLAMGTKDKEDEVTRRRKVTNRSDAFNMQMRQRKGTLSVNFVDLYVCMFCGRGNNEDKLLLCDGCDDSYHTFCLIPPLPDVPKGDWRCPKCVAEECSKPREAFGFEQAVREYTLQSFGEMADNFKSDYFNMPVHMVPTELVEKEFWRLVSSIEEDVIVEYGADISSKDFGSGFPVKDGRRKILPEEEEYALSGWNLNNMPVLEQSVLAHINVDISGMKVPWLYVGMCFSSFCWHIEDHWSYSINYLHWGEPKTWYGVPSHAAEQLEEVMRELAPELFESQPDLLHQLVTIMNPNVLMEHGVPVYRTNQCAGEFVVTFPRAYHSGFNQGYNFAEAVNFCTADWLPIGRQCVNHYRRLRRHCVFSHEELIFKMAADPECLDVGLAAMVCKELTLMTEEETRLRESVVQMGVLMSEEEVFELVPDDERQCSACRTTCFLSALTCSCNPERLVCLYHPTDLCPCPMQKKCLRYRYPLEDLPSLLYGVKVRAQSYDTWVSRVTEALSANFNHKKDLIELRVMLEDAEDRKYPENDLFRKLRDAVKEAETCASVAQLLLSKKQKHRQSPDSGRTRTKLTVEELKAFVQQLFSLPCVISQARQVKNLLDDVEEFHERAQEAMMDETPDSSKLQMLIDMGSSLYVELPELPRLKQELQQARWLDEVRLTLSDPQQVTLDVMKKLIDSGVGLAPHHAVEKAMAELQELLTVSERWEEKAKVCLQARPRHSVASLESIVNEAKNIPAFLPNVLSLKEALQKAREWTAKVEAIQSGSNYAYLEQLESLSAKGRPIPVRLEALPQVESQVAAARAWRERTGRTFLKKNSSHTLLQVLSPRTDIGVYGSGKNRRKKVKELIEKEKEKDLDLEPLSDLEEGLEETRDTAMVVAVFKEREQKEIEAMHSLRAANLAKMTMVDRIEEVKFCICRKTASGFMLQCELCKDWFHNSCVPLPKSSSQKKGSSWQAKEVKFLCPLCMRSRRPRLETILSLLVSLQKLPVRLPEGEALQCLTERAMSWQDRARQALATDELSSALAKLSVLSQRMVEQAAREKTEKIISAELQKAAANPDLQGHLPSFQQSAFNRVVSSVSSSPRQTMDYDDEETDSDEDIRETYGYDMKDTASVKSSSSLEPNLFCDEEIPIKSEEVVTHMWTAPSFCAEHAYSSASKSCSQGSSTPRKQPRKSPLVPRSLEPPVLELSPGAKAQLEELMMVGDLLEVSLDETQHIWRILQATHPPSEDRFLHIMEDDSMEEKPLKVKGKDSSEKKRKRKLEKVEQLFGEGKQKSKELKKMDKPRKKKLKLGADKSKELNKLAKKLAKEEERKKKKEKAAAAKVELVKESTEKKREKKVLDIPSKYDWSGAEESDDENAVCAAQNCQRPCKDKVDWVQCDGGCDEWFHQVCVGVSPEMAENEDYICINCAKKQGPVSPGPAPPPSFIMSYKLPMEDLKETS

Row | SMILES | IC50 [nM]
1 | CC(C)c1c(-c2ccn(CC3CC3)n2)[nH]c2c(C#N)cnn2c1=O (single isomer, unassigned) [Example 16, 5-(1-(cyclopropylmethyl)-1H-pyrazol-3-yl)-6-isopropyl-7-oxo-4,7-dihydropyrazolo[1,5-a]pyrimidine-3-carbonitrile] | 11
2 | CC(C)c1c(-c2cccc(CNS(C)(=O)=O)c2)[nH]c2c(C#N)cnn2c1=O [Compound 348] | 14
3 | CC(C)c1c(-c2ccc(C(=O)NC3CC3)cc2)[nH]c2c(C#N)cnn2c1=O [Compound 351] | 27
4 | CC(C)c1c(-c2cccc(OCC3CC3)c2)[nH]c2c(C#N)cnn2c1=O [Compound 355] | 40
5 | CC(C)c1c(-c2cccc(OCc3ccccc3)c2)[nH]c2c(C#N)cnn2c1=O [Compound 356] | 44
6 | CC(C)c1c(-c2cccc(CN3CCOCC3)c2)[nH]c2c(C#N)cnn2c1=O [Compound 357] | 22
7 | CC(C)c1c(/C=C/C2CC2)[nH]c2c(C#N)cnn2c1=O [Compound 360] | 28
8 | CC(C)c1c(-c2cnn(-c3ccc(F)cc3)c2)[nH]c2c(C#N)cnn2c1=O [Compound 362] | 24
9 | CC(C)c1c(-c2cnn(CCNc3ccccc3)c2)[nH]c2c(C#N)cnn2c1=O [Compound 366] | 18
10 | CNC(=O)c1ccc(-c2[nH]c3c(C#N)cnn3c(=O)c2C(C)C)cc1 [Compound 368] | 75
11 | CC(C)c1c(-c2cnn(CCN3CCC(F)(F)C3)c2)[nH]c2c(C#N)cnn2c1=O [Compound 371] | 11
12 | CC(C)c1c(-c2cccc(NS(C)(=O)=O)c2)[nH]c2c(C#N)cnn2c1=O [Compound 375] | 19
13 | CC(C)c1c(-c2ccc(C(=O)N3CCOCC3)cc2)[nH]c2c(C#N)cnn2c1=O [Compound 376] | 19
14 | CC(=O)N1CCN(c2ccc(-c3[nH]c4c(C#N)cnn4c(=O)c3C(C)C)cc2)CC1 [Compound 377] | 22
15 | CC(C)c1c(-c2cnn(C3CCC(F)(F)C3)c2)[nH]c2c(C#N)cnn2c1=O (centres unmarked) [Compound 380] | 48
16 | CC(C)c1c(-c2cnn([C@H]3CC[C@H](O)C3)c2)[nH]c2c(C#N)cnn2c1=O [Compound 382] | 48
17 | Cc1ncc(-c2[nH]c3c(C#N)cnn3c(=O)c2C(C)C)s1 [Compound 386] | 12
18 | CC(C)c1c(-c2cccc(C#Cc3ccccc3)c2)[nH]c2c(C#N)cnn2c1=O [Compound 387] | 130

Row | SMILES | IC50 [nM]
19 | CC(C)c1c(-c2cccc(CCc3ccccc3)c2)[nH]c2c(C#N)cnn2c1=O [Compound 388] | 25
20 | COCC(C)(C)n1cc(-c2[nH]c3c(C#N)cnn3c(=O)c2C(C)C)cn1 [Compound 390] | 55
21 | C=CC(=O)N1CC(n2cc(-c3[nH]c4c(C#N)cnn4c(=O)c3C(C)C)cn2)C1 [Compound 391] | 11
22 | CCC(=O)N1CC(n2cc(-c3[nH]c4c(C#N)cnn4c(=O)c3C(C)C)cn2)C1 [Compound 392] | 20
23 | CC(C)c1c(-c2ccc(=O)[nH]c2)[nH]c2c(C#N)cnn2c1=O [Compound 393] | 12
24 | CC(C)c1c(-c2cnn(C(C)(C)CF)c2)[nH]c2c(C#N)cnn2c1=O [Compound 396] | 34
25 | CC(C)c1c(-c2c[nH]nc2C(F)(F)F)[nH]c2c(C#N)cnn2c1=O [Compound 397] | 32
26 | CC(C)c1c(-c2ccc(S(=O)(=O)N3CCOCC3)cc2)[nH]c2c(C#N)cnn2c1=O [Compound 399] | 54
27 | Cc1nn(C(C)C)cc1-c1[nH]c2c(C#N)cnn2c(=O)c1C(C)C [Compound 402] | 58
28 | COC(=O)c1cc(-c2[nH]c3c(C#N)cnn3c(=O)c2C(C)C)cn1C(C)C [Compound 409] | 44
29 | CC(C)c1c(-c2ccn(C(C)C)n2)[nH]c2c(C#N)cnn2c1=O [Compound 411] | 35
30 | CC(C)c1c(-c2cc(C3CC3)n(C3CCCC3)n2)[nH]c2c(C#N)cnn2c1=O [Compound 412] | 46
31 | CC(C)c1c(-c2cc(C3CC3)nn2C2CCCC2)[nH]c2c(C#N)cnn2c1=O [Compound 413] | 110
32 | CC(C)c1c(-c2ccn(C3CCCC3)n2)[nH]c2c(C#N)cnn2c1=O [Compound 414] | 14
33 | CC(C)c1c(-c2cc(C(=O)N(C)C)n(C(C)C)c2)[nH]c2c(C#N)cnn2c1=O [Compound 417] | 31
34 | CCc1c(-c2cccc(N3CCCC3=O)c2)[nH]c2c(C#N)cnn2c1=O [Compound 421] | 19
35 | CCc1c(-c2cccc(N3CCC(C)(C)C3=O)c2)[nH]c2c(C#N)cnn2c1=O [Compound 422] | 29

Next, values leading:

Row | IC50 [nM] | SMILES
36 | 47 | CC(C)c1c(-c2ccnn2CC2CC2)[nH]c2c(C#N)cnn2c1=O (single isomer, unassigned) [Example 15, 5-(1-(cyclopropylmethyl)-1H-pyrazol-5-yl)-6-isopropyl-7-oxo-4,7-dihydropyrazolo[1,5-a]pyrimidine-3-carbonitrile]
37 | 140 | CC(C)NC(=O)c1ccc(-c2[nH]c3c(C#N)cnn3c(=O)c2C(C)C)cc1 [Compound 345]
38 | 40 | CC(C)c1c(-c2ccc(N3CCN(C)CC3)cc2)[nH]c2c(C#N)cnn2c1=O [Compound 346]
39 | 24 | CC(C)c1c(-c2cc(Cl)cc(C#N)c2)[nH]c2c(C#N)cnn2c1=O [Compound 347]
40 | 14 | CC(C)c1c(-c2cccc(-c3ccn[nH]3)c2)[nH]c2c(C#N)cnn2c1=O [Compound 349]
41 | 20 | CC(C)c1c(-c2ccc(S(C)(=O)=O)cc2)[nH]c2c(C#N)cnn2c1=O [Compound 350]
42 | 27 | CC(C)c1c(-c2cnn(CCF)c2)[nH]c2c(C#N)cnn2c1=O [Compound 352]
43 | 14 | CC(C)c1c(-c2cccc(-c3ccccc3)c2)[nH]c2c(C#N)cnn2c1=O [Compound 353]
44 | 77 | CC(C)c1c(-c2ccc(C(F)(F)F)c(C3CC3)c2)[nH]c2c(C#N)cnn2c1=O [Compound 354]
45 | 25 | CC(C)c1c(-c2cccc(COc3ccccc3)c2)[nH]c2c(C#N)cnn2c1=O [Compound 358]
46 | 20 | CC(C)c1c(-c2cnn(-c3cccc(F)c3)c2)[nH]c2c(C#N)cnn2c1=O [Compound 359]
47 | 52 | CC(C)c1c(-c2ccc(C(F)(F)F)nc2)[nH]c2c(C#N)cnn2c1=O [Compound 361]
48 | 25 | Cc1nc(C)c(-c2[nH]c3c(C#N)cnn3c(=O)c2C(C)C)s1 [Compound 363]
49 | 18 | CCCn1cc(-c2[nH]c3c(C#N)cnn3c(=O)c2C(C)C)cn1 [Compound 364]
50 | 18 | CCCCn1cc(-c2[nH]c3c(C#N)cnn3c(=O)c2C(C)C)cn1 [Compound 365]
51 | 25 | CC(C)c1c(-c2ccc(C(N)=O)cc2)[nH]c2c(C#N)cnn2c1=O [Compound 367]
52 | 85 | CNC(=O)c1ccc(-c2[nH]c3c(C#N)cnn3c(=O)c2C(C)C)cc1F [Compound 369]
53 | 8 | CC(C)c1c(-c2cnn(CCN3CC(F)(F)C3)c2)[nH]c2c(C#N)cnn2c1=O [Compound 370]
54 | 15 | CC(C)c1c(-c2cnn(CCNCC(F)(F)F)c2)[nH]c2c(C#N)cnn2c1=O [Compound 372]
55 | 24 | C/C=C/c1[nH]c2c(C#N)cnn2c(=O)c1C(C)C [Compound 373]
56 | 38 | CC(=O)Nc1cccc(-c2[nH]c3c(C#N)cnn3c(=O)c2C(C)C)c1 [Compound 374]
57 | 14 | CC(C)c1c(-c2cnn(CC(F)F)c2)[nH]c2c(C#N)cnn2c1=O [Compound 378]
58 | 11 | CC(C)c1ccc(-c2[nH]c3c(C#N)cnn3c(=O)c2C(C)C)o1 [Compound 379]

Row | IC50 [nM] | SMILES
59 | 30 | CC(C)c1c(-c2cnn([C@H]3CC[C@@H](O)C3)c2)[nH]c2c(C#N)cnn2c1=O [Compound 381]
60 | 31 | CC(C)c1c(-c2cccc(-c3cn[nH]c3)c2)[nH]c2c(C#N)cnn2c1=O [Compound 383]
61 | 13 | CC(C)c1c(-c2ccc(Br)o2)[nH]c2c(C#N)cnn2c1=O [Compound 384]
62 | 21 | CC(C)c1c(-c2cccc(Nc3ccccc3)c2)[nH]c2c(C#N)cnn2c1=O [Compound 385]
63 | 33 | CC(C)c1c(-c2cnn(C3CCC(F)C3)c2)[nH]c2c(C#N)cnn2c1=O (centres unmarked) [Compound 389]
64 | 20 | CC(C)c1c(-c2cccc(/C=C/c3ccccc3)c2)[nH]c2c(C#N)cnn2c1=O [Compound 394]
65 | 10 | CC(C)c1c(-c2ccc(N3CCNCC3)cc2)[nH]c2c(C#N)cnn2c1=O [Compound 395]
66 | 41 | Cc1cc(C)cc(-c2[nH]c3c(C#N)cnn3c(=O)c2C(C)C)c1 [Compound 398]
67 | 35 | CC(C)c1c(-c2cccc(C(=O)N3CCN(C)CC3)c2)[nH]c2c(C#N)cnn2c1=O [Compound 400]
68 | 39 | CC(C)c1c(-c2cccc(C(C)(C)O)c2)[nH]c2c(C#N)cnn2c1=O [Compound 401]
69 | 57 | Cc1c(-c2[nH]c3c(C#N)cnn3c(=O)c2C(C)C)cnn1C(C)C [Compound 403]
70 | 18 | C=CC(C)c1c(-c2ccccc2)[nH]c2c(C#N)cnn2c1=O (centres unmarked) [Compound 404]
71 | 12 | CC(C)c1c(-c2cc(C3CC3)n[nH]2)[nH]c2c(C#N)cnn2c1=O [Compound 405]
72 | 15 | COC(=O)c1cc(-c2[nH]c3c(C#N)cnn3c(=O)c2C(C)C)c[nH]1 [Compound 406]
73 | 48 | CC(C)c1c(-c2cc(C3CC3)nn2C(C)C)[nH]c2c(C#N)cnn2c1=O [Compound 407]
74 | 150 | CC(C)c1c(-c2cc(C3CC3)n(C(C)C)n2)[nH]c2c(C#N)cnn2c1=O [Compound 408]
75 | 39 | CC(C)c1c(-c2cc(C(F)(F)F)nn2C)[nH]c2c(C#N)cnn2c1=O [Compound 410]
76 | 77 | CC(C)c1c(-c2ccnn2C(C)C)[nH]c2c(C#N)cnn2c1=O [Compound 415]
77 | 48 | CNC(=O)c1cc(-c2[nH]c3c(C#N)cnn3c(=O)c2C(C)C)cn1C(C)C [Compound 416]
78 | 13 | CC(C)c1c(-c2ccn(CCC3CC3)n2)[nH]c2c(C#N)cnn2c1=O [Compound 418]
79 | 88 | CC(C)c1c(-c2ccnn2CCC2CC2)[nH]c2c(C#N)cnn2c1=O [Compound 419]
80 | 23 | CCn1ccc(-c2[nH]c3c(C#N)cnn3c(=O)c2C(C)C)n1 [Compound 420]
